Reference: the METLIN SMRT retention time set (Domingo-Almenara et al. 2019)

Assay: gradient 5% acetonitrile 3 min, to 50% in 2 min, to 85% in 15 min, held 3 min, 100 µL/min
Conditions: column: Zorbax Extend-C18 2.1 x 50 mm; eluents: water / acetonitrile, 0.1% formic acid
Summary of the method: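 A Zorbax Extend-C18 column (2.1 × 50 mm, 1.8 μm) run at 100 μL/min with water and acetonitrile, both containing 0.1% formic acid, separated mixtures of ~100 pure standards. The HPLC was coupled to a quadrupole time-of-flight mass spectrometer operated in positive and negative ionization mode, with dead and dwell volumes of 40 μL and 900 μL. Each retention time was taken from a computationally picked adduct peak that was then manually inspected.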

| SMILES | RP-LC retention time [s] |
| --- | --- |
| CCN(CC)C(=O)c1ccc2c(c1)N(CC(=O)NC1CCCC1)C(=O)C1CCCCN21 (configuration not stated) | 789 |
| CCCN(CC1CCOC1)C(=O)Nc1cccc(C(F)(F)F)c1 (configuration not stated) | 922 |
| O=C(CN1C(=O)CCCc2ccccc21)N1CCN(C(=O)c2ccco2)CC1 | 678 |
| COc1ccc(CN2C(=O)CN(C3CCCCC3)C(=O)C2c2cccs2)cc1 (configuration not stated) | 915 |
| c1ccc(O[C@H]2CN(C3CCNCC3)[C@H]2c2ccncc2)cc1 | 552 |
| COC(=O)c1cc(C)nc2c1c(=O)n(Cc1nc(-c3ccccc3OC)oc1C)c(=O)n2C | 971 |
| CCCS(=O)(=O)N1CCC(c2noc(-c3cccnc3)n2)C1 (configuration not stated) | 730 |
| O=C1OC(=O)C2C3CCC(O3)C12 (configuration not stated) | 559 |
| CCOc1ccc(C2C(=O)N(C3CCCCCC3)CC(=O)N2Cc2ccco2)cc1OC (configuration not stated) | 963 |
| CN(C)C(=O)c1n[nH]c2c1CN(C(=O)c1ccccc1F)CC2 | 618 |
| Cc1[nH]c(=O)[nH]c(=O)c1CC(=O)NCCc1cccs1 | 574 |
| Cc1cc(C)c(S(=O)(=O)N2CCC(N3CCN(Cc4ccccc4)C(=O)C3=O)CC2)cc1C | 917 |
| Cc1ccc(C(=O)N2CCCC2c2c(C)noc2C)cc1 (configuration not stated) | 760 |
| COC1=C(OC)C(=O)c2ccccc2C1=O | 878 |
| Fc1cccc(-c2noc(-c3nc(-c4ccc5c(c4)OCO5)no3)n2)c1 | 1220 |
| CC1CCN(S(=O)(=O)c2ccc3nn(CCOc4ccc(F)cc4)c(=O)n3c2)CC1 | 1340 |

| SMILES | RP-LC retention time [s] |
| --- | --- |
| Cc1cc2c(cc1S(=O)(=O)N1CCCC1C(=O)NCc1ccc3c(c1)OCO3)OC(C)C(=O)N2 (configuration not stated) | 755 |
| Cc1ccc(N2CCCS2(=O)=O)cc1NC(=O)C1CCCC1 | 696 |
| Cc1nc(CNC(=O)C2CCN(C(=O)NCCc3ccccc3)CC2)cs1 | 660 |
| Cc1cc(OCC(=O)N[C@@H](Cc2ccccc2)C(=O)O)c2c3c(c(=O)oc2c1)CCC3 | 835 |
| O=C(CSc1ccc(N2CCCC(C(=O)NC3CC3)C2)nn1)Nc1cccc(C(F)(F)F)c1 (configuration not stated) | 687 |
| Cc1ccc(NC(=O)C2CCN(S(=O)(=O)c3ccc4[nH]c(=O)sc4c3)CC2)cc1Cl | 904 |
| O=C(Nc1ccc2c(c1)OCO2)Nc1cccn2c(C3CCC3)nnc12 | 801 |
| CC(C)Oc1ccc(C(=O)O)cc1 | 823 |
| Cc1ccc(CNC(=O)N2CCN(C(=O)N3C[C@H]4C[C@@H](C3)[C@H]3CCCC(=O)N3C4)CC2)cc1 | 677 |
| COc1ccc(Cn2c(C)c(CNCc3ccc(C)o3)c(C(=O)O)c2C)cc1 | 714 |
| CCN1CCN(C(=O)C2CCN(S(=O)(=O)c3ccc4c(c3)sc(=O)n4C)CC2)CC1 | 551 |
| O=C(CN1CCN(Cc2ccc(F)cc2)C1=O)NCc1ccc(N2CCOCC2)cc1 | 712 |
| CCOC(=O)c1cc(S(=O)(=O)N2CCCC2C(=O)Nc2nc3ccc(C)cc3s2)cn1C (configuration not stated) | 1040 |
| CCOC(=O)N1CCN(Cc2nc(-c3ccc(N4CCCC(C)C4)nc3)no2)CC1 (configuration not stated) | 855 |
| O=C(C1CCN(S(=O)(=O)c2ccc(-c3noc(C4CC4)n3)cc2)CC1)N1CCCC1 | 859 |

Continued, values first:

| RP-LC retention time [s] | SMILES |
| --- | --- |
| 630 | O=C(Cn1c(=O)n(Cc2cccnc2)c(=O)c2ncccc21)c1ccc2c(c1)CCCC2 |
| 843 | CCn1cc(-c2ccc(Cl)cc2)cc1C(=O)NC(C)c1ccccn1 (configuration not stated) |
| 667 | O=C(NCc1ccc(F)cc1)c1cn2ccncc2n1 |
| 850 | O=C(Cn1nc2c(N3CCSCC3)nccn2c1=O)NCCc1ccc(Cl)cc1 |
| 1260 | Clc1cccc(CSc2nnc(-c3ccc(Br)cc3)o2)c1 |
| 616 | Cc1cc(C)cc(-n2ccn3c(CCCC(=O)N4CCN(c5ccccn5)CC4)nnc3c2=O)c1 |
| 745 | O=C(CSc1nnnn1-c1ccccc1)NCCc1ccc2c(c1)OCCO2 |
| 899 | O=C(CCc1conc1-c1cccc(F)c1)NCc1ccc(F)cc1 |
| 592 | OCCN1CCN(c2ncnc3c2cnn3-c2ccccc2Cl)CC1 |
| 1010 | CC(C)c1noc(-c2ccc(-n3cnc(C(=O)N4CCc5ccccc5C4)c3)nc2)n1 |
| 897 | COc1ccccc1NC(=O)CSc1nnc2c3cc(-c4ccc(F)cc4)nn3ccn12 |
| 1000 | O=C(CSc1nc2ccccc2o1)OCc1cc(-c2ccc3c(c2)OCCO3)on1 |
| 955 | Cc1ccc(S(=O)(=O)N2C[C@@H]3CN(S(=O)(=O)c4ccccc4F)C[C@H](C2)O3)cc1 |
| 697 | Cc1cc(C(=O)NCC(C)C)c2cccc(C)c2n1 |
| 751 | Cc1cccc(C)c1NC(=O)Nc1ccc(S(N)(=O)=O)cc1 |
| 730 | COc1ccc(-c2cn3c(CC(=O)N4CCN(c5ccccc5)CC4)csc3n2)cc1OC |
| 1370 | CCCOc1nc2ccccc2nc1N1CCCC(C(=O)Nc2c(Cl)cc(OC)cc2OC)C1 (configuration not stated) |
| 688 | COc1cc(C(=O)NC2CCN(c3cc(-c4ccccc4)[nH]n3)C2)cc(OC)c1OC (configuration not stated) |

| RP-LC retention time [s] | SMILES |
| --- | --- |
| 1040 | Cc1nn(C(C)C(=O)N2CCCCCC2)c(=O)c2c(-n3cccc3)n(-c3ccccc3)nc12 (configuration not stated) |
| 892 | Cc1ccc(CN2C(=O)Cn3cccc3C2C(=O)NC2CCCC2)cc1 (configuration not stated) |
| 799 | CCC(C)NC(=O)c1ccc(-c2csc(C)n2)cc1 (configuration not stated) |
| 930 | Cc1sc2ccn(CC(C)C)c(=O)c2c1C(=O)NCc1ccccc1 |
| 1040 | O=C(Cc1c(F)cccc1Cl)Nc1nc(-c2ccccc2)cs1 |
| 606 | Cc1cc2c(cc1S(=O)(=O)N1CCN(c3ccccn3)CC1)n(C)c(=O)n2C |
| 634 | Cc1ccc(-c2nc(Cn3ccnc3C)no2)cc1 |
| 1030 | COc1ccc(-c2noc(C3CCCN3C(=O)Nc3ccc(F)c(Cl)c3)n2)cc1 (configuration not stated) |
| 795 | COc1ncc(C(=O)Nc2ccc(F)c(F)c2)c(C)n1 |
| 646 | CCc1ccccc1NC(=O)Cn1cnc2nc(N3CCCC(C(=O)NC)C3)sc2c1=O (configuration not stated) |
| 762 | Cn1c(-c2cccc(C(=O)NCc3cc(F)cc(F)c3)c2)nc2cccnc21 |
| 959 | O=C(c1cc2ccccc2[nH]1)N1CCC2(CC1)N=C(c1ccc(Br)cc1)NO2 |
| 1050 | Cc1cc(Cl)ccc1OCc1nc(-c2ccc3c(c2)nnn3CCC(=O)N2CCCC2)no1 |
| 612 | CCn1c(C(=O)NCCCN2CCOCC2)cc2c(=O)oc3ccccc3c21 |
| 616 | Cc1ccn2cc(-c3ccc(NC(=O)C(C)(C)C)cc3)nc2n1 |
| 843 | COc1cc(-c2cccc(Cl)c2)nc2ccc(NC(=O)Cc3cccs3)cc12 |
| 970 | Cc1ccc(NC(=O)N2CCC(C(C)C(=O)Nc3cc(C)cc(C)c3)CC2)cc1 (configuration not stated) |
| 674 | COc1ccc(-c2c(NC(=O)c3ccco3)n(-c3ccccc3)nc(C)c2=O)cc1 |
